Data as given in patent publication US20060263802A1 (priority 2003, published 2006).

What was measured:
Format in all cases: binding
[1] = tested on: human monoclonal antibody CRJB
[2] = tested on: human monoclonal antibody CR57
[3] = tested on: human monoclonal antibody CRJA
[4] = tested on: human monoclonal antibody CRJB; remark: listed apart in the source
[5] = tested on: human monoclonal antibody CR57; remark: listed apart in the source
[6] = tested on: human monoclonal antibody CRJA; remark: listed apart in the source

| Sequence | Binding of CRJB to linear peptide (PEPSCAN-ELISA signal) [1] | Binding of CR57 to linear peptide (PEPSCAN-ELISA signal) [2] | Binding of CRJA to linear peptide (PEPSCAN-ELISA signal) [3] | Binding of CRJB (10 μg/ml) to looped/cyclic peptide (PEPSCAN-ELISA) [4] | Binding of CR57 (10 μg/ml) to looped/cyclic peptide (PEPSCAN-ELISA) [5] | Binding of CRJA (10 μg/ml) to looped/cyclic peptide (PEPSCAN-ELISA) [6] | Binding of CRJB (10 μg/ml) to looped/cyclic peptide (PEPSCAN-ELISA signal) [4] | Binding of CR57 (10 μg/ml) to looped/cyclic peptide (PEPSCAN-ELISA signal) [5] | Binding of CRJA (10 μg/ml) to looped/cyclic peptide (PEPSCAN-ELISA signal) [6] | also measured |
| --- | --- | --- | --- | --- | --- | --- | --- | --- | --- | --- |
| QSSLLQQHMELLESS | 114 | 82 | 98 | 85 | 97 | 99 | – | – | – | – |
| GACKLKLCGVLGLRL | 134 | 123 | 64 | 79 | 73 | 54 | – | – | – | binding of antibody CR57 to linear peptide (PEPSCAN OD) [2]: bound; strength of binding of CR57 (OD value compared with the other peptides / twice the average value) [2]: lower than twice the average value |
| FKDGDEAEDFVEVHL | – | – | – | – | – | – | – | – | – | Binding of human monoclonal antibody CRJB to linear peptide (PEPSCAN-ELISA signal) [1]: 76; Binding of human monoclonal antibody CR57 to linear peptide (PEPSCAN-ELISA signal) [2]: 65; Binding of human monoclonal antibody CRJA to linear peptide (PEPSCAN-ELISA signal) [3]: 85; Binding of CRJB to looped/cyclic peptide (PEPSCAN-ELISA signal) [4]: 80; Binding of CR57 to looped/cyclic peptide (PEPSCAN-ELISA signal) [5]: 106; Binding of CRJA to looped/cyclic peptide (PEPSCAN-ELISA signal) [6]: 97 |
| ELKVGYILAIKMNGF | 132 | 87 | 84 | – | – | – | 83 | 84 | 93 | – |
| MAGDPRYEESLHNPY | 116 | 64 | 71 | – | – | – | 62 | 65 | 71 | – |
| RKHFRPTPDACRAAY | 107 | 64 | 57 | – | – | – | 79 | 72 | 41 | – |
| ESLVIISPSVADLDP | 125 | 88 | 120 | – | – | – | 65 | 99 | 118 | – |
| VDERGLYKSLKGACK | 108 | 50 | 82 | 80 | 105 | 96 | – | – | – | – |
| NGFTCTGVVTEAENY | 101 | 69 | 98 | – | – | – | 76 | 92 | 82 | – |
| KVGYILAIKMNGFTC | 118 | 78 | 83 | – | – | – | 64 | 96 | 71 | – |
| PGFGKAYTIFNKTLM | 113 | 78 | 118 | 79 | 110 | 94 | – | – | – | – |
| ELVRKREECLDALES | 113 | 82 | 97 | 71 | 93 | 98 | – | – | – | – |
| KHFRPTPDACRAAYN | 112 | 73 | 85 | – | – | – | 72 | 70 | 41 | – |
| LMEADAHYKSVRTWN | 107 | 73 | 46 | 72 | 41 | 43 | – | – | – | – |
| IWMPENPRLGMSCDI | 110 | 98 | 87 | – | – | – | 156 | 329 | 152 | binding of antibody CR57 to looped/cyclic peptide (PEPSCAN OD) [5]: clearly bound |
| PDGNVLIPEMQSSLL | 129 | 87 | 99 | 108 | 110 | 112 | – | – | – | – |
| WCPPDQLVNLHDFRS | 119 | 101 | 114 | 106 | 105 | 111 | – | – | – | – |
| ILPSKGCLRVGGRCH | 113 | 79 | 112 | 91 | 105 | 97 | – | – | – | – |
| GCTNLSGFSYMELKV | 114 | 55 | 72 | – | – | – | 55 | 63 | 55 | – |
| KTTKESLVIISPSVA | 112 | 101 | 82 | – | – | – | 75 | 111 | 104 | – |
| TVFKDGDEAEDFVEV | – | – | – | – | – | – | – | – | – | Binding of human monoclonal antibody CRJB to linear peptide (PEPSCAN-ELISA signal) [1]: 124; Binding of human monoclonal antibody CR57 to linear peptide (PEPSCAN-ELISA signal) [2]: 107; Binding of human monoclonal antibody CRJA to linear peptide (PEPSCAN-ELISA signal) [3]: 92; Binding of CRJB to looped/cyclic peptide (PEPSCAN-ELISA signal) [4]: 90; Binding of CR57 to looped/cyclic peptide (PEPSCAN-ELISA signal) [5]: 111; Binding of CRJA to looped/cyclic peptide (PEPSCAN-ELISA signal) [6]: 110 |
| TWNEILPSKGCLRVG | 146 | 97 | 93 | 113 | 132 | 127 | – | – | – | – |
| RKREECLDALESIMT | 110 | 73 | 96 | 96 | 132 | 129 | – | – | – | – |
